Experimental data: patent US10155027B2, “Alpha-galactosidase A and 1-deoxygalactonojirimycin co-formulation for the treatment of fabry disease” (Amicus Therapeutics, Inc., priority 2012, dated 2018)
Counter-ions that a name gives are not always drawn.

Target: T1, α-Gal A (Homo sapiens, UniProt P06280)
T1 construct: purchased JCR Pharmaceuticals Co. Ltd, (Japan) JR-051; host or cells: CHO cells
T1 sequence (P06280 32-429): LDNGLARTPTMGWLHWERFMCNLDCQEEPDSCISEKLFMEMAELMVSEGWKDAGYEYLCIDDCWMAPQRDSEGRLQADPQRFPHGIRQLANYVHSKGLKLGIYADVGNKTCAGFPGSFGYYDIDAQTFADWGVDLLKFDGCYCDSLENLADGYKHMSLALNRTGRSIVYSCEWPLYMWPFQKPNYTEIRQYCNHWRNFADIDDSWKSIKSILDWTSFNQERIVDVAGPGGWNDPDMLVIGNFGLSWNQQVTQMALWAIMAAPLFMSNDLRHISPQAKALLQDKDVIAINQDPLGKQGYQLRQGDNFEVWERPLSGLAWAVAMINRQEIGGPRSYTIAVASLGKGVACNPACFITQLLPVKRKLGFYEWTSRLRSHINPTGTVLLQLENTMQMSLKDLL
Test: α-Gal A stability in whole blood ex vivo at 37° C.
Type: in vitro ADME
Conditions: 5 nM and 50 nM α-Gal A formulated with 10 μM DGJ
Description: The effect of co-formulating α-Gal A with DGJ on α-Gal A stability in blood ex vivo was examined. Time-dependent loss of α-Gal A activity in whole blood at 37° C. was determined. 5 nM and 50 nM α-Gal A was formulated with or without 10 μM DGJ.

With `OC[C@H]1NC[C@H](O)[C@@H](O)[C@H]1O` [migalastat HCl, (2R,3S,4R,5S)-2-(hydroxymethyl) piperdine-3,4,5-triol] the “effect on α-Gal A stability in whole blood” value was “stabilized the enzyme and prevented enzyme inactivation”.
